Source: ChEMBL document CHEMBL1201862, “PubChem BioAssay data set” (2004)
Where “and” joins values, the source holds several entries; their conditions need not be identical. Equal values may be shown once.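 48-hour exposure; five concentrations; linearly interpolated endpoints. At the GI50, growth is halved.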 Calls of active or inactive are those of the source. No stated cut-off is given here; in the data, active = GI50 up to about 1.1 µM and inactive = higher.

Tests used:
Assay in all cases: DTP human tumour cell line panel, 48 h
K562 = test system: K562
PC-3 = test system: PC-3
COLO 205 = test system: COLO 205
RXF 393 = test system: RXF 393
MDA-MB-435 = test system: MDA-MB-435
U-251 = test system: U-251
SF-539 = test system: SF-539
M14 = test system: M14
UACC-62 = test system: UACC-62
HOP-62 = test system: HOP-62
MDA-MB-231 = test system: MDA-MB-231
ACHN = test system: ACHN
OVCAR-5 = test system: OVCAR-5
Hs-578T = test system: Hs-578T
CAKI-1 = test system: CAKI-1
HCC 2998 = test system: HCC 2998
NCI-H460 = test system: NCI-H460
IGROV-1 = test system: IGROV-1
Malme-3M = test system: Malme-3M

Measured: GI50

CCOC(=O)C(=CNC(=S)N/N=C1\C(=O)Nc2ccccc21)C(=O)OCC
inactive: K562 > 100 µM | PC-3 > 100 µM | COLO 205 99.1 µM | RXF 393 > 100 µM | MDA-MB-435 > 100 µM | U-251 > 100 µM | SF-539 > 100 µM | M14 > 100 µM | UACC-62 > 100 µM | HOP-62 > 100 µM | MDA-MB-231 > 100 µM | ACHN > 100 µM | OVCAR-5 > 100 µM | Hs-578T 48.2 µM | CAKI-1 21.1 µM | HCC 2998 > 100 µM | NCI-H460 47.8 µM

COc1cc(-c2oc(/C=N/c3ccccc3)c([N+](=O)[O-])c2-c2ccc(O)c(OC)c2)ccc1O
inactive: K562 36.1 µM | PC-3 18.7 µM | COLO 205 20.3 µM | RXF 393 22.8 µM | MDA-MB-435 23.6 µM | U-251 23.4 µM | SF-539 17.4 µM | M14 32.1 µM | UACC-62 17.9 µM | IGROV-1 15.4 µM | HOP-62 33.8 µM | MDA-MB-231 27.5 µM | ACHN 16.1 µM | OVCAR-5 35.5 µM | Hs-578T 39.6 µM | CAKI-1 21.8 µM | HCC 2998 15 µM | NCI-H460 16.1 µM

CCC1C(C#N)=C(N)OC2=C1C(=O)CC(C)(C)C2 (stereo not given)
inactive: PC-3 > 100 µM | COLO 205 > 100 µM | MDA-MB-435 > 100 µM | U-251 > 100 µM | SF-539 > 100 µM | Malme-3M > 100 µM | M14 > 100 µM | UACC-62 > 100 µM | IGROV-1 > 100 µM | HOP-62 > 100 µM | MDA-MB-231 > 100 µM | ACHN > 100 µM | OVCAR-5 > 100 µM | Hs-578T > 100 µM | CAKI-1 > 100 µM | HCC 2998 > 100 µM | NCI-H460 > 100 µM

O=C(c1ccccc1)N1N=C(C(F)(F)F)CC1(O)C(F)(F)F (stereo not given)
inactive: K562 > 100 µM | PC-3 > 100 µM | COLO 205 > 100 µM | MDA-MB-435 > 100 µM | U-251 > 100 µM | SF-539 > 100 µM | Malme-3M > 100 µM | M14 > 100 µM | HOP-62 > 100 µM | MDA-MB-231 > 100 µM | ACHN > 100 µM | OVCAR-5 > 100 µM | Hs-578T > 100 µM | HCC 2998 > 100 µM | NCI-H460 > 100 µM

O=C(O)/C=C\C(=O)Nc1ccccn1
inactive: K562 > 100 µM | PC-3 > 100 µM | COLO 205 > 100 µM | RXF 393 > 100 µM | MDA-MB-435 > 100 µM | U-251 > 100 µM | SF-539 > 100 µM | Malme-3M > 100 µM | M14 > 100 µM | UACC-62 > 100 µM | IGROV-1 > 100 µM | HOP-62 > 100 µM | MDA-MB-231 > 100 µM | ACHN > 100 µM | OVCAR-5 > 100 µM | Hs-578T > 100 µM | CAKI-1 > 100 µM | NCI-H460 > 100 µM

CC(=O)Nc1ccc2c(C)c3c4ccccc4n(C)c3nc2n1
inactive: PC-3 18.9 µM | COLO 205 12.7 µM | RXF 393 16.1 µM | MDA-MB-435 18.7 µM | SF-539 29.3 µM | M14 20.7 µM | UACC-62 20.1 µM | IGROV-1 28.1 µM | HOP-62 14.3 µM | MDA-MB-231 18.7 µM | ACHN 8.55 µM | OVCAR-5 18.6 µM | Hs-578T 16.3 µM | CAKI-1 12.2 µM | HCC 2998 16.4 µM | NCI-H460 2.92 µM

Cc1c2c(n3c(nc4ccccc43)c1C#N)NCC2
inactive: K562 > 10 µM | PC-3 > 10 µM | COLO 205 > 10 µM | RXF 393 > 10 µM | MDA-MB-435 > 10 µM | U-251 > 10 µM | SF-539 > 10 µM | Malme-3M > 10 µM | M14 > 10 µM | UACC-62 > 10 µM | IGROV-1 > 10 µM | HOP-62 > 10 µM | MDA-MB-231 > 10 µM | ACHN > 10 µM | OVCAR-5 > 10 µM | Hs-578T > 10 µM | CAKI-1 > 10 µM | NCI-H460 > 10 µM

c1ccc2[nH]c(-c3cscn3)nc2c1 [THIABENDAZOLE]
inactive: K562 > 100 µM and 83.6 µM | PC-3 > 100 µM | COLO 205 > 100 µM | MDA-MB-435 74.3 µM and 44.4 µM | U-251 > 100 µM | SF-539 > 100 µM | Malme-3M > 100 µM | M14 > 100 µM | UACC-62 > 100 µM | IGROV-1 > 100 µM | MDA-MB-231 > 100 µM | ACHN > 100 µM | OVCAR-5 > 100 µM | Hs-578T > 100 µM | HCC 2998 > 100 µM | NCI-H460 > 100 µM and 54 µM
